Data taken from patent publication US8853437B2, “Anti-inflammatory compounds” (The University of Tokyo, priority 2009, dated 2014).

Columns and labels:
[1] = tested on: infiltration of neutrophil; experiment: zymosan peritonitis model; assay type: in vivo, mouse C57BL/6J; conditions: for suppressing effect for other cell group (macrophage etc.): 10 ng (FIG. 4C); for neutrophil suppressing activity compared with dexamethasone: 10 ng compound versus 10 μg dexamethasone (FIG. 4A, 4C); for dose dependence of activity in peritonitis model: Example 4, 1 ng or 10 ng/mouse (FIG. 4A(b), 4D); for activities of suppressing infiltration of neutrophil at an inflammation initial stage: low dose of 10 ng (FIG. 4C)
Method: For an inflammation model, zymosan peritonitis elicited by intraperitoneally administering zymosan being a cell wall component of yeast was used. Since an exudate in an abdominal cavity can be recovered, the present model is a model suitable for analyzing cytokines and eicosanoids.
Zymosan A (Wako Pure Chemical Industries, Ltd.) was suspended in a physiological saline to 1 mg/mL, and the suspension was warmed at 37° C. for 30 minutes. Thereafter, this zymosan A solution was vortexed, and returned to room temperature. The compound synthesized in the previous Example, 17,18-diHEPE was taken into a 1.5 mL tube, and a solvent was vaporized with nitrogen to complete dryness and, thereafter, a physiological saline was added to dissolve it. Then, 100 μL of this compound solution was injected (1 ng or 10 ng/mouse) through a tail vein of C57BL/6J mouse (7 weeks old, mail: CLEA Japan, Inc.). As a control, a group in which only a physiological saline was injected, and a group in which dexamethasone (10 μg/mouse) being an anti-inflammatory steroid was injected, were used. After about 2 minutes, 1 mL of a zymosan A solution was intraperitoneally administered. After 2 hours, cells exuded into an abdominal cavity were recovered into a tube with a PBS, and the cell number was counted. Thereafter, this tube was centrifuged at 1200 rpm and 4° C. for 5 minutes to remove the supernatant, a precipitate (pellet) was suspended in PBS, and a population was analyzed by three-color staining of FACS.
Abdominal cavity cells were adjusted to 2.5×10^6 cells/mL, and 200 μL was placed into a 5 mL round-bottom tube (BDFalcon) (5×10^5 cells/tube). To this tube was added an anti-mouse CD16/CD32 antibody (0.5 mg/mL; BDBiosciences) at 1 μL per tube, and this was incubated at room temperature for 10 minutes. To this tube was added a staining antibody mix (prepared by diluting 1.0 μL of FITC bound anti-mouse F4/80 antibody (0.5 mg/mL; eBiosciences), 0.5 μL of PE bound anti-mouse Ly-6G & Ly-6C antibody (0.2 mg/mL; eBiosciences) and 0.5 μL of PerCP-Cy5.5 bound anti-mouse CD11b antibody (0.2 mg/mL; eBiosciences) in 50 μL of PBS, per sample) at 50 μL/tube, and this was incubated at room temperature for 15 minutes under light shielding. Measurement was performed by FACS Calibur (BDBiosciences). […]

[2] = tested on: neutrophil which have infiltrated into lung; experiment: acute lung damage model (intrabronchial hydrochloric acid); assay type: in vivo, mouse C57BL/6J; conditions: 10 ng via tail vein; BAL 12 hours after hydrochloric acid (FIG. 4E)
Method: One hundred μL of a compound 17,18-diHEPE dissolved in a physiological saline was injected through a tail vein of a C57BL/6J mouse (7 weeks old, male; CLEA Japan, Inc.). After 15 minutes, this mouse was anesthetized by intraperitoneally administering a mixed solution of ketamine (Daiichi Sankyo Propharma) and xylazine (Bayer Medical Ltd.), a trachea was exposed, and 25 μL of hydrochloric acid (pH 1.0, 0.1 N; SIGMA) was administered into a left bronchium. As a control, a group in which only a physiological saline was injected and, after anesthesia, hydrochloric acid was administered into a left bronchium (saline/HCl), and a non-treated group (intact) were used. After 12 hours, this mouse was slaughtered, and bronchial alveolus washing (BAL) was performed with 0.7 mL of PBS two times. The cell number in the BAL solution was counted and a population of cells was quantitated by simple Giemsa staining using a simple Giemsa staining solution Diffquick (Sysmex Corporation).

Row | Structure (SMILES) | suppressing effect for other cell group (macrophage etc.) [1] | neutrophil suppressing activity compared with dexamethasone [1] | dose dependence of activity in peritonitis model [1] | activities of suppressing infiltration of neutrophil at an inflammation initial stage [1] | neutrophil-specific infiltration suppressing activity [2] | suppression of infiltration of neutrophil ([1]; 10 ng/mouse via tail vein, abdominal cavity cells recovered 2 hours after zymosan, FACS (FIG. 4A)) | IC40 (dose versus decrease in the neutrophil number) ([1]; calculated from graph FIG. 4F)
1 | CCC(O)C(O)/C=C/C=C/C=C\C/C=C\C/C=C\CCCC(=O)O (single isomer, unassigned) [peak 5, 17,18-diHEPE] | not recognized | equivalent to 10 μg of dexamethasone | dose-dependent | recognized |  |  | 
2 | CCC(O)C(O)/C=C/C=C/C=C\C/C=C\C/C=C\CCCC(=O)O (single isomer, unassigned) [peak 6, 17,18-diHEPE] | not recognized | equivalent to 10 μg of dexamethasone | dose-dependent | recognized | recognized |  | 
3 | CCC(O)C(O)/C=C/C=C/C=C\C/C=C\C/C=C\CCCC(=O)O (centres unmarked) [17,18-diHEPE, 17,18-dihydroxyeicosapentaenoic acid] |  |  |  |  |  | about 40% | approximately 8 ng
